Test results: US20230365618A1, “CRYSTALLINE THIOCHOLESTEROL” (Durect Corporation, priority 2020, published 2023)

Key:
[1] = Dynamic vapor sorption/desorption (DVS); assay type: physicochemical; conditions: for hygroscopicity: DVS plot
[2] = Relative thermodynamic stability of the forms from crystal density, DSC melt onset and heat of fusion; assay type: physicochemical; conditions: suggested by higher crystal density and melt onset (with higher heat of fusion)
Experimental: A tau lag adjustment is performed with indium, tin, and zinc. […] The adjustment is then verified with octane, phenyl salicylate, indium, tin, and zinc. […] A weighed aluminum pan configured as the sample pan was placed on the […] side of the cell.

[3] = test system: lipid biosynthesis; cholesterol secretion and degradation; conditions: shown previously; cited from earlier work

For CC(C)CCC[C@@H](C)[C@H]1CC[C@H]2[C@@H]3CC=C4C[C@@H](S)CC[C@]4(C)[C@H]3CC[C@]12C [crystalline thiocholesterol Form A], the “weight change during the DVS cycle” value ([1]; 5% to 95% RH, sorption and desorption, FIG. 6) was 0.25%, the hygroscopicity ([1]; FIG. 6) was “low hygroscopicity” and the hygroscopicity ([1]; FIG. 6, listed as Crystalline thiocholesterol Form A) was “non-hygroscopic”. For the same molecule, the “solid form of material recovered from the DVS experiment (x-ray powder diffraction)” value ([1]; after DVS cycle 5% to 95% RH) was “identified as crystalline thiocholesterol Form A” and the “thermodynamic stability relative to another form” value [2] was “more thermodynamically stable than Crystalline Thiocholesterol Form B”.
In the case of CC(C)CCC[C@@H](C)[C@H]1CC[C@H]2[C@@H]3CC=C4C[C@@H](S)CC[C@]4(C)[C@H]3CC[C@]12C [Thiocholesterol, (3 S,8S,9S,10R,13R,14S,17R)-17-[(1R)-1,5-dimethylhexyl]-10,13-dimethyl-2,3,4,7,8,9,11,12,14,15,16,17-dodecahydro-1H-cyclopenta[a] phenanthrene-3-thiol], the “cholesterol secretion and degradation” value [3] is listed as “increases” and the lipid biosynthesis [3] is listed as “decreases”.
